# Reference: ChEMBL document CHEMBL3808323, “Synthesis and evaluation of novel benzylphthalazine derivatives as hedgehog signaling pathway inhibitors” (Bioorg Med Chem Lett, 2016)
# Active and inactive are the calls of the source. No cut-off for these calls is given here.
# Key:
# [1] = Inhibition of hedgehog signaling (unknown origin) expressed in mouse NIH/3T3 cells by Gli-dual-luciferase reporter assay; format: cell-based; details: NIH3T3
# [2] = Systemic clearance in Sprague-Dawley rat plasma at 2 mg/kg, iv; format: ADME, organism-based
# Medulloblastoma cell = experiment: Antitumor activity against mouse ptch+/- and p53-/- medulloblastoma cells allografted in athymic nude mouse assessed as tumor growth inhibition at 40 mg/kg, bid administered via oral gavage measured twice per week by microcaliper; format: functional, organism-based
# [3] = Cmax in Sprague-Dawley rat plasma at 10 mg/kg, po; format: ADME, organism-based; parameters: dose 10 mg/kg, route oral
# [4] = Tmax in Sprague-Dawley rat plasma at 10 mg/kg, po; format: ADME, organism-based
# [5] = Volume of distribution at steady state in Sprague-Dawley rat plasma at 2 mg/kg, iv; format: ADME, organism-based; details: read-out: Vdss
# [6] = Half life in Sprague-Dawley rat plasma at 2 mg/kg, iv; format: ADME, organism-based
# [7] = Oral bioavailability in Sprague-Dawley rat plasma at 10 mg/kg; format: ADME, organism-based
# Mus musculus = experiment: Toxicity in athymic nude mouse allografted with mouse ptch+/- and p53-/- medulloblastoma cells assessed as body weight loss at 40 mg/kg, bid administered via oral gavage; format: organism-based; details: in vivo
# [8] = Inhibition of cell proliferation in mouse ptch+/- and p53-/- medulloblastoma cells after 36 hrs by Brdu assay; format: functional
# [9] = AUC (0 to infinity) in Sprague-Dawley rat plasma at 2 mg/kg, iv; format: ADME, organism-based; parameters: dose 2 mg/kg, time infinity, route intravenous
# [10] = AUC (0 to infinity) in Sprague-Dawley rat plasma at 10 mg/kg, po; format: ADME, organism-based; parameters: dose 10 mg/kg, route oral, time infinity
SMILES,IC50 [1] [nM],further results
CCOC(=O)c1ccc(N2CCC(Nc3nnc(Cc4ccccc4)c4ccccc34)C2)nc1 (racemic),45.7,
CC(C)(O)c1ccc(OC2CN(c3nnc(Cc4ccccc4)c4ccccc34)C2)nc1,648,
CCC(O)(CC)c1ccc(N2CCC(Nc3nnc(Cc4ccccc4)c4ccccc34)C2)nc1 (racemic),3.91,
CC(C)(O)c1ccc(N2CCC(Nc3nnc(Cc4ccccc4)c4ccccc34)C2)nc1 (racemic),9.66,
CC(C)(O)c1ccc(NC2CCCN(c3nnc(Cc4ccccc4)c4ccccc34)C2)nc1 (racemic),> 1000,
CS(=O)(=O)c1ccc(C(=O)Nc2ccc(Cl)c(-c3ccccn3)c2)c(Cl)c1 [VISMODEGIB],2.3,
CC(C)(O)c1ccc(N2CC3(C2)CN(c2nnc(Cc4ccccc4)c4ccccc24)C3)nc1,> 1000,
CCC(O)(CC)c1ccc(NC2CCN(c3nnc(Cc4ccccc4)c4ccccc34)C2)nc1 (racemic),2.97,
CC(C)(O)c1ccc(N2CCN(c3nnc(Cc4ccccc4)c4ccccc34)CC2)nc1,7.1,TGI (Medulloblastoma cell): Active; IC50 [8]: 44.6 nM

# Second part, led by results:
IC50 [1] [nM],SMILES,further results
> 1000,CC(=O)c1ccc(N(C)C2CCN(c3nnc(Cc4ccccc4)c4ccccc34)CC2)nc1,
3.28,CC(C)(O)c1ccc(NC2CCN(c3nnc(Cc4ccccc4)c4ccccc34)C2)nc1 (racemic),
0.58,CC(C)(O)c1ccc(NC2CCN(c3nnc(Cc4ccccc4)c4ccccc34)CC2)nc1,clearance [2]: 42.1 mL/min/kg; TGI (Medulloblastoma cell): Active; Cmax [3]: 950 nM; Tmax [4]: 2 h; Vd [5]: 2.16 L/kg; half-life [6]: 1.03 h; bioavailability [7]: 40.1%; Activity (Mus musculus): Non-toxic; IC50 [8]: 38 nM; AUC(0-inf) [9]: 1.64 µM·h; AUC(0-inf) [10]: 3.28 µM·h
10.3,CCC(O)(CC)c1ccc(NC2CCN(c3nnc(Cc4ccccc4)c4ccccc34)CC2)nc1,
8.76,CCOC(=O)c1ccc(NC2CCN(c3nnc(Cc4ccccc4)c4ccccc34)C2)nc1 (racemic),
2.45,CC(=O)c1ccc(NC2CCN(c3nnc(Cc4ccccc4)c4ccccc34)CC2)nc1,
6.66,CN(c1ccc(C(C)(C)O)cn1)C1CCN(c2nnc(Cc3ccccc3)c3ccccc23)CC1,
> 1000,CCOC(=O)c1ccc(NC2CCCN(c3nnc(Cc4ccccc4)c4ccccc34)C2)nc1 (racemic),
